This is an account of results in ChEMBL document CHEMBL1126999, “Anticonvulsant sugar sulfamates. Potent cyclic sulfate and cyclic sulfite analogues of topiramate” (Bioorg Med Chem Lett, 1993).

The structures appear in SMILES notation.

The subject of data set [1] is Mus musculus. The data set can be described thus: Tested for anticonvulsant activity against mice at 4 hr at a peroral dose of 10 mg/Kg by maximal electroshock seizure (MES) test. It is filed as functional.
Data set [2] relates to Mus musculus. The data set can be described thus: Tested for anticonvulsant activity against mice at 4 hr at a peroral dose of 1 mg/Kg by maximal electroshock seizure (MES) test. It is filed as functional.
The test system of data set [3] is Mus musculus. The data set can be described thus: Tested for anticonvulsant activity against mice at 4 hr at a peroral dose of 75 mg/Kg by maximal electroshock seizure (MES) test. The data set is classed as functional. (In general: Protection in the maximal electroshock model is a classic sign of anticonvulsant action.)
Data set [4] concerns Mus musculus. The data set can be described thus: Tested for anticonvulsant activity against mice at 4 hr at a peroral dose of 3 mg/Kg by maximal electroshock seizure (MES) test. The data set is classed as functional.
Data set [5] concerns Mus musculus. The data set can be described thus: Tested for anticonvulsant activity against mice at 4 hr at a peroral dose of 35 mg/Kg by maximal electroshock seizure (MES) test. The data set is classed as functional.
Data set [6] deals with Mus musculus. The data set can be described thus: Tested for effective dose required to produce anticonvulsant activity against mice at 4 hr (po). It is filed as functional.
Data set [7] deals with Mus musculus. The data set can be described thus: Tested for anticonvulsant activity against mice at 4 hr at a peroral dose of 300 mg/Kg by maximal electroshock seizure (MES) test. It is filed as functional.
Data set [8] has as its system Mus musculus. The data set can be described thus: Tested for anticonvulsant activity against mice at 4 hr at a peroral dose of 200 mg/Kg by maximal electroshock seizure (MES) test. The data set is classed as functional.
The test system of data set [9] is Mus musculus. The data set can be described thus: Tested for effective dose required to produce anticonvulsant activity against mice at 16 hr (po). The data set is classed as functional.
Data set [10] can be described thus: Therapeutic index relative to neurotoxicity ([…]) was determined in the rotarod test. A general note: Falling from the rotarod earlier than controls is read as motor impairment.
For data set [11], the system named is Mus musculus. The data set can be described thus: Tested for anticonvulsant activity against mice at 4 hr at a peroral dose of 60 mg/Kg by maximal electroshock seizure (MES) test. It is filed as functional.
[12] abbreviates: Mus musculus, po, 4 h, read-out: ED50.

For `CC1(C)O[C@H]2[C@@H]3OS(=O)(=O)O[C@@H]3CO[C@@]2(COS(=O)(=O)NC2CCC2)O1`, the Block was determined as 90% in data set [1] and 0% in data set [2].

`CC1(C)O[C@H]2[C@@H]3OS(=O)(=O)O[C@@H]3CO[C@@]2(COS(=O)(=O)NC2CCCCCCC2)O1`: the Block in data set [1] came to 0%; in [3] it was 30%.

Turning to `CCN(CC)S(=O)(=O)OC[C@@]12OC[C@H]3OS(=O)(=O)O[C@H]3[C@@H]1OC(C)(C)O2`, the figures for the Block in data set [1] and in data set [3] were 10% and 100%, respectively.

Turning to `CCNS(=O)(=O)OC[C@@]12OC[C@H]3OS(=O)(=O)O[C@H]3[C@@H]1OC(C)(C)O2`, the Block in [4] is recorded as 0%; in data set [5], 100%. Moreover, the ED50 in data set [6] (setting [12]) is 14.4 mg/kg.

As for `CC1(C)O[C@H]2[C@@H]3OS(=O)(=O)O[C@@H]3CO[C@@]2(COS(=O)(=O)NCc2ccccc2)O1`, the Block is reported as 0% in data set [1] and 100% in data set [3].

For `C=CCNS(=O)(=O)OC[C@@]12OC[C@H]3OS(=O)(=O)O[C@H]3[C@@H]1OC(C)(C)O2`, the results for the Block in [1] and in data set [2] were 70% and 0%, respectively.

For `CCCCNS(=O)(=O)OC[C@@]12OC[C@H]3OS(=O)(=O)O[C@H]3[C@@H]1OC(C)(C)O2`, the Block in data set [1] is 30%; in [5], 100%.

`CNS(=O)(=O)OC[C@@]12OC[C@H]3OS(=O)(=O)O[C@H]3[C@@H]1OC(C)(C)O2` yielded a Block in data set [1] of 100%. The ED50 in data set [6] (setting [12]) stood at 7.4 mg/kg.

Consider `CC1(C)O[C@H]2[C@@H]3OS(=O)(=O)O[C@@H]3CO[C@@]2(COS(=O)(=O)Nc2ccccc2)O1`, for which the Block in data set [7] and in [3] was 0% each time.

As to `CCCCCCCCNS(=O)(=O)OC[C@@]12OC[C@H]3OS(=O)(=O)O[C@H]3[C@@H]1OC(C)(C)O2`, the Block in data set [1] worked out at 0%; in [3], 100%.

For `CC1(C)O[C@H]2[C@@H]3OS(=O)(=O)O[C@@H]3CO[C@@]2(COS(=O)(=O)NCC(F)(F)F)O1`, the Block came out at 40% in data set [1] and 90% in data set [3].

On to `CN(C)S(=O)(=O)OC[C@@]12OC[C@H]3OS(=O)(=O)O[C@H]3[C@@H]1OC(C)(C)O2`, for which the Block in data set [1] amounted to 70%; in data set [5] it was 100%. In addition, the ED50 in [6] (setting [12]) was 6.9 mg/kg.

In the case of `CC1(C)O[C@H]2[C@@H]3OS(=O)(=O)O[C@@H]3CO[C@@]2(COS(=O)(=O)NC2CC2)O1`, the Block turned out to be 90% in data set [1] and 0% in [2]. Besides, in data set [6] (setting [12]), the ED50 is 7.3 mg/kg.

Regarding `CNS(=O)(=O)OC[C@@]12OC[C@H]3OC(C)(C)O[C@H]3[C@@H]1OC(C)(C)O2`, the Block is 100% in [8] and 60% in data set [3].

`CC1(C)O[C@H]2[C@@H]3OS(=O)(=O)O[C@@H]3CO[C@@]2(COS(N)(=O)=O)O1` yielded a Block in [1] of 80%. Further, the ED50 in data set [9] amounted to 41.5 mg/kg; in data set [6] (setting [12]) it was 6.3 mg/kg. Moreover, in [10], the selectivity ratio was over 150.

`CN(C)S(=O)(=O)OC[C@@]12OC[C@H]3OC(C)(C)O[C@H]3[C@@H]1OC(C)(C)O2`: the values for the Block in data set [8] and in data set [3] were 80% and 0%, respectively.

In data set [1], `CC1(C)O[C@H]2[C@@H]3OS(=O)O[C@@H]3CO[C@@]2(COS(N)(=O)=O)O1` (stereo in doubt; 3a) showed a Block of 70%. Also, the ED50 in [6] (setting [12]) stood at 6.3 mg/kg.

Consider `CC1(C)O[C@H]2[C@@H]3OS(=O)O[C@@H]3CO[C@@]2(COS(N)(=O)=O)O1` (stereo in doubt; 3b), for which the ED50 in [6] stood at 6.5 mg/kg.

Turning to `O=C1NC(=O)C(c2ccccc2)(c2ccccc2)N1` [PHENYTOIN], in data set [6] (setting [12]), the ED50 was 6.4 mg/kg.

Regarding `CC1(C)O[C@@H]2[C@@H](CO[C@@]3(COS(N)(=O)=O)OC(C)(C)O[C@@H]23)O1` [TOPIRAMATE], the Block in [11] was determined as 60%. Further, the ED50 is 720 mg/kg in data set [9] and 53.5 mg/kg in [6].

A word on the ED50: it is the dose that gives a 50% effect, or the effect in half of the subjects.
